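Grown in 96-well plates, cells were treated for 48 hours with each compound at five concentrations. Insufficient inhibition: endpoint recorded as highest concentration tested. TGI is the concentration that stops growth completely.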
How the values were obtained:
Experiment in all cases: NCI tumour cell line growth inhibition, 48 h
[1] = tested on: UACC-257 melanoma
[2] = tested on: NCI/ADR-RES ovarian
[3] = tested on: SR leukemia
[4] = tested on: COLO 205 colon
[5] = tested on: SF-539 CNS
[6] = tested on: OVCAR-8 ovarian
[7] = tested on: T-47D breast
[8] = tested on: ACHN renal
[9] = tested on: EKVX NSCLC
[10] = tested on: IGROV1 ovarian
[11] = tested on: OVCAR-5 ovarian
[12] = tested on: HOP-62 NSCLC
[13] = tested on: MDA-N
[14] = tested on: 786-0 renal
[15] = tested on: MOLT-4 leukemia
[16] = tested on: SK-MEL-28 melanoma
[17] = tested on: SW-620 colon
[18] = tested on: OVCAR-3 ovarian
[19] = tested on: SF-268 CNS
[20] = tested on: KM12 colon
[21] = tested on: PC-3 prostate
[22] = tested on: SK-MEL-5 melanoma
[23] = tested on: HT29 colon
[24] = tested on: HL-60(TB) leukemia
[25] = tested on: U251 CNS
[26] = tested on: K-562 leukemia
[27] = tested on: NCI-H460 lung
[28] = tested on: SF-295 CNS
[29] = tested on: A498 renal
[30] = tested on: TK-10 renal
[31] = tested on: A549 NSCLC
[32] = tested on: LOX IMVI melanoma
[33] = tested on: SK-OV-3 ovarian
[34] = tested on: CCRF-CEM leukemia
[35] = tested on: MDA-MB-435
[36] = tested on: HS 578T breast
[37] = tested on: NCI-H23 lung
[38] = tested on: NCI-H226 lung
[39] = tested on: SN12C renal
[40] = tested on: UO-31 renal
[41] = tested on: SK-MEL-2 melanoma
[42] = tested on: M14 melanoma
[43] = tested on: SNB-19 CNS
[44] = tested on: BT-549 breast
[45] = tested on: MCF7 breast
[46] = tested on: SNB-75 CNS
[47] = tested on: RPMI-8226 leukemia
[48] = tested on: MDA-MB-231 breast
[49] = tested on: HOP-92 NSCLC
[50] = tested on: UACC-62 melanoma
[51] = tested on: CAKI-1 renal
[52] = tested on: HCT-116 colon
[53] = tested on: DU-145 prostate
[54] = tested on: HCT-15 colon

Measured: TGI

O=c1n(N=S(=O)(c2ccccc2)c2ccccc2)c(=O)n2n1C1C=CC2CC1
> 100 µM: [1] | [2] | [3] | [4] | [5] | [6] | [7] | [8] | [9] | [10] | [11] | [12] | [13] | [14] | [15] | [16] | [17] | [18] | [19] | [20] | [21] | [22] | [23] | [24] | [25] | [26] | [27] | [28] | [29] | [30] | [31] | [32] | [33] | [34] | [35] | [36] | [37] | [38] | [39] | [40] | [41] | [42] | [43] | [44] | [45] | [46] | [47] | [48] | [49] | [50] | [51] | [52] | [53] | [54]

Source: PubChem BioAssay (NCI)
